Assay results published in publication PMC11357404, “Cytotoxic and Anti-HSV-1 Effects of Caulerpin Derivatives” (Molecules, 2024).
Entries after “also recorded” stand apart in the source; their conditions may differ.

What was measured:
[1] = Cytotoxicity, MTT assay in Vero cells; format: cell-based, Cercopithecus aethiops; details: African green monkey (Cercopithecus aethiops); for CC50 at 72 h: Absolute CC50, Vero cells, MTT; for viability at 72 h: Vero cells, cell viability curves (Figure 2), read-out: maximum percentage of cell viability
Experimental: (§1) The method of Cheng et al. was followed with modifications to evaluate the cytotoxicity of caulerpin analogs 1, 2, 3, 4, 5, 7, 8, 9, 10, and 11 at concentrations ranging from 200 to 1800 µM. Vero cells (African green monkey kidney cells Cercopithecus aethiops; ATCC, Manassas, VA, USA) grown in Dulbecco’s modified medium (DMEM) supplemented with 5% fetal bovine serum (FBS), […], and 2.5 µg/mL gentamicin at 37 °C in 5% CO2 were used. Each test sample was diluted in DMEM containing 2% fetal bovine serum at six different concentrations. Vero cells were plated at a concentration of 2 × 10^4 cells/well and incubated for 24–36 h. […] After this time, the medium was discarded and 20 μL of MTT solution was added to each well. The plates were incubated for four hours at 37 °C. Subsequently, the supernatant was removed, and 150 μL of DMSO was added to each well to dissolve the formazan crystals. The plates were shaken for 10 min, followed by absorbance reading in an ELISA microplate reader at a wavelength of 540 nm.
(§2) The MTT assay was validated by constructing a trend line using linear regression in the GraphPad Prism Version 6.01 program. Assays that presented R^2 greater than 0.70 were considered appropriate. After the validation of the MTT assay, the CC50 and CC20 values of each tested analog were calculated.

Vero cells [2] = experiment: Cytotoxicity, MTT assay in Vero cells; format: cell-based, Cercopithecus aethiops; details: Chlorocebus sabaeus; Vero cells, MTT, 72 h, 200 to 1800 µM
Experimental: as §1, §2

[3] = system: Herpes simplex virus type 1 (HSV-1) in Vero cells; experiment: Antiviral screening, treatment concomitant to infection (MTT); format: cell-based; details: HSV-1 MOI 0.2, compound at CC20, 72 h; for inhibition of HSV-1-induced cytotoxicity (in words): versus untreated control or acyclovir
Experimental: (§3) The antiviral screening tests were performed following the method of Cheng et al., with modifications. For the anti-HSV-1 (herpes simplex virus type 1) activity of caulerpin analogs, Vero cells were used under the same conditions as described for the cytotoxicity test. The assay was divided into two steps:
Cells were infected with HSV-1 (MOI 0.2) and treated with the compound’s CC20 (concentration toxic to 20% of cells). The plates were incubated at 37 °C in 5% CO2 for 72 h, and cell viability was assessed using the MTT method.
(§4) In both assays, wells containing only cell medium were used as controls for cell growth. For positive control, wells containing medium and virus were used, and wells containing medium, virus, and acyclovir were used as a negative control.
(§5) The inhibition ratio was calculated using the following equation. % Inhibition=(OD treatment−OD positivecontrol)/(OD cell growth−OD positive control)×100 where OD = Optical density (absorbance).

[4] = system: Herpes simplex virus type 1 (HSV-1) in Vero cells; experiment: Antiviral screening, post-infection treatment (MTT); format: cell-based; details: HSV-1 MOI 0.2 for 1 h, compound at CC20, 72 h, versus infected untreated control or acyclovir
Experimental: as §3
After removing the culture medium, the HSV-1 (MOI 0.2) was added to the wells containing cells for 1 h. After this time, the cells were washed, and the tested compounds and acyclovir were added to their CC20. The plates were incubated at 37 °C in 5% CO2 for 72 h and cell viability was assessed using the MTT method.
as §4, §5

Vero cells [5] = system: Vero cells; design: method as in doi:10.1590/S0102-695X2012005000072; details: cited from earlier work
Chikungunya virus = details: cited from earlier work
cancer cell = system: cancer cell; design: method as in PMID 25237346; details: caulerpin extracted from C. peltata; cited from earlier work

Structure (SMILES)	CC50 at 72 h [1]	Emax (Vero cells [2])	inhibition of HSV-1-induced cytotoxicity (in words) [3]	inhibition of HSV-1-induced cytotoxicity (in words) [4]	other results
CCn1c2c(c3ccccc31)C=C(C(=O)OC)c1c(c3ccccc3n1CC)C=C2C(=O)OC [Analog 3, (6E,13E)-Dimethyl-5,12-diethyl-5,12 dihydrocycloocta[1,2 b: 5,6-b′]diindole-6,13-dicarboxylate]	548 ± 38.8 µM	51.5 ± 0.9%	significant inhibition	higher percentages of cellular inhibition compared to the control group	–
C=CCn1c2c(c3ccccc31)C=C(C(=O)OC)c1c(c3ccccc3n1CC=C)C=C2C(=O)OC [Analog 4]	628 ± 69.8 µM	70.1 ± 1.1%	–	–	viability at 72 h [1]: < 75%
Cn1c2c(c3ccccc31)C=C(C(=O)O)c1c(c3ccccc3n1C)C=C2C(=O)O [Analog 10, (6E,13E)-5,12-Dimethyl-5-dihydrocycloocta[1,2b:5,6-b’]diindol-6,13-dicarboxylic acid]	679 ± 38.3 µM	71.8 ± 0.3%	–	higher percentages of cellular inhibition compared to the control group; also recorded: antiviral effects statistically similar to acyclovir	–
Nc1nc2c(ncn2COCCO)c(=O)[nH]1 [Acyclovir, reference compound]	–	–	–	–	inhibition percentage of HSV-1-induced cytotoxicity ([3]; Vero cells): 52.79%
COC(=O)C1=Cc2c(n(C)c3ccccc23)C(C(=O)OC)=Cc2c1n(C)c1ccccc21 [Analog 2, (6E,13E)-Dimethyl-5,12-dimethyl-5,12 dihydrocycloocta[1,2 b: 5,6-b′]diindol-6,13-dicarboxylate]	524 ± 19.3 µM	68.4 ± 0.2%	–	–	viability at 72 h [1]: < 75%
O=C(O)C1=Cc2c(n(Cc3ccccc3)c3ccccc23)C(C(=O)O)=Cc2c1n(Cc1ccccc1)c1ccccc21 [Analog 13, (6E,13E)-5,12-Dibenzyl-5,12-dihydrocycloocta[1,2 b: 5,6-b′]diindol-6,13-dicarboxylic acid]	494 ± 51.4 µM	41 ± 1.2%	–	–	–
C=CCn1c2c(c3ccccc31)C=C(C(=O)O)c1c(c3ccccc3n1CC=C)C=C2C(=O)O [Analog 12, (6E,13E)-5,12-Diallyl-5,12-dihydrocycloocta[1,2b:5,6-b′]diindol-6,13-dicarboxylic acid]	664 ± 55.3 µM	44.5 ± 1.3%	significant inhibition; also recorded: efficacy similar to the antiviral agent acyclovir	higher percentages of cellular inhibition compared to the control group	–
O=C(O)C1=Cc2c([nH]c3ccccc23)C(C(=O)O)=Cc2c1[nH]c1ccccc21 [Analog 9, (6E,13E)-5,12-Dihydrocycloocta[1,2b:5,6-b′]diindol-6,13-dicarboxylic acid]	1040 ± 62.4 µM	62.6 ± 0.7%	–	–	–
COC(=O)C1=Cc2c(n(Cc3ccccc3)c3ccccc23)C(C(=O)OC)=Cc2c1n(Cc1ccccc1)c1ccccc21 [Analog 6, (6E,13E)-Dimethyl-5,12-dinzyl 5,12-dihydrocycloocta[1,2b:5,6-b′]diindol-6,13-dicarboxylate]	891 ± 87.8 µM	74.1 ± 1.8%	significant inhibition	higher percentages of cellular inhibition compared to the control group	–
CCn1c2c(c3ccccc31)C=C(C(=O)O)c1c(c3ccccc3n1CC)C=C2C(=O)O [Analog 11, (6E,13E)-5,12-Diethyl-5,12-dihydrocycloocta[1,2b:5,6-b′]diindol-6,13-dicarboxylic acid]	1000 ± 41.6 µM	62.7 ± 0.8%	significant inhibition; also recorded: efficacy similar to the antiviral agent acyclovir	higher percentages of cellular inhibition compared to the control group; also recorded: antiviral effects statistically similar to acyclovir	–
COC(=O)/C1=C/c2c([nH]c3ccccc23)/C(C(=O)OC)=C\c2c1[nH]c1ccccc21 [Analog 1, (6E,13E)-dimethyl-5,12-dihydrocycloocta[1,2b:5,6-b′]diindol-6,13-dicarboxylate]	688 ± 35.2 µM	52.7 ± 1.8%	–	higher percentages of cellular inhibition compared to the control group	CC50 (Vero cells [5]): 1180 µM; EC50 (Chikungunya virus; Chikungunya virus, read-out: EC50 inhibitory effect): 0.8 µM; inhibition of viral infectivity (virucidal activity) (Chikungunya virus; at 5 μM concentration): ~90%; inhibition of cancer cell growth (cancer cell): 12%
